This passage reports IC50, EC50 and AC50 results from ChEMBL document CHEMBL1201862, “PubChem BioAssay data set” (2004).

The target in one assay is T1, Bcl-2-like protein 10 (Homo sapiens, UniProt Q9HD36).
T1 sequence (Q9HD36 whole entry): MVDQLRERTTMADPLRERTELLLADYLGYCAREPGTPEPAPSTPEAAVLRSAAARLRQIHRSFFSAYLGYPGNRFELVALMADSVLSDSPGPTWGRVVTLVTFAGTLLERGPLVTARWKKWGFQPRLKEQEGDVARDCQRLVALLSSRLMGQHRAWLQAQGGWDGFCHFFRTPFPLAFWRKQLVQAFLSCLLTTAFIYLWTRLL
Briefly: Bcl-B/TR3 peptide binding disruption – biochemical, fluorescence polarization, FITC-TR3 peptide, selectivity assay for Bfl-1 inhibitor project, primary screen (AID 748).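 Note: fluorescence polarization from a fluorescein-labelled TR3 peptide binding purified Bcl-B.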

The next assay addresses Estrogen receptor beta (Homo sapiens, UniProt Q92731). Briefly: blockers of SRC-3 recruitment to ERβ – biochemical, ELISA, streptavidin-HRP readout, orthogonal assay, confirmation (AID 1060).
Assay [1] has as its target T2, Polyadenylate-binding protein 1 (Homo sapiens, UniProt P11940). Briefly: MLLE binding blockers, Cy5 peptide tracer – biochemical, fluorescence polarization, Cy5-PAM2 peptide, secondary, miRNA deadenylation inhibitor project, dose response (AID 602260). It counts as functional. Conditions: read-out: IC50_Mean.
Assay [2] has as its target T2, Polyadenylate-binding protein 1. Briefly: MLLE domain peptide-binding blockers, IC50 – biochemical, fluorescence polarization, FITC-PAM2 peptide, dose response (AID 602259). The assay is classed as functional. The following applies: read-out: IC50_Mean.
Assay [3] is described as follows: A cytotoxicity screen of small molecule inhibitors of the PhoP region in Salmonella typhi identified in the primary screen. [Related pubchem assays: 1850, 1864, 1985 ]. It counts as functional.
Assay [4] concerns the target T3, Replicative DNA helicase DnaB (Mycobacterium tuberculosis, UniProt P9WMR3).
T3 sequence (P9WMR3 whole entry): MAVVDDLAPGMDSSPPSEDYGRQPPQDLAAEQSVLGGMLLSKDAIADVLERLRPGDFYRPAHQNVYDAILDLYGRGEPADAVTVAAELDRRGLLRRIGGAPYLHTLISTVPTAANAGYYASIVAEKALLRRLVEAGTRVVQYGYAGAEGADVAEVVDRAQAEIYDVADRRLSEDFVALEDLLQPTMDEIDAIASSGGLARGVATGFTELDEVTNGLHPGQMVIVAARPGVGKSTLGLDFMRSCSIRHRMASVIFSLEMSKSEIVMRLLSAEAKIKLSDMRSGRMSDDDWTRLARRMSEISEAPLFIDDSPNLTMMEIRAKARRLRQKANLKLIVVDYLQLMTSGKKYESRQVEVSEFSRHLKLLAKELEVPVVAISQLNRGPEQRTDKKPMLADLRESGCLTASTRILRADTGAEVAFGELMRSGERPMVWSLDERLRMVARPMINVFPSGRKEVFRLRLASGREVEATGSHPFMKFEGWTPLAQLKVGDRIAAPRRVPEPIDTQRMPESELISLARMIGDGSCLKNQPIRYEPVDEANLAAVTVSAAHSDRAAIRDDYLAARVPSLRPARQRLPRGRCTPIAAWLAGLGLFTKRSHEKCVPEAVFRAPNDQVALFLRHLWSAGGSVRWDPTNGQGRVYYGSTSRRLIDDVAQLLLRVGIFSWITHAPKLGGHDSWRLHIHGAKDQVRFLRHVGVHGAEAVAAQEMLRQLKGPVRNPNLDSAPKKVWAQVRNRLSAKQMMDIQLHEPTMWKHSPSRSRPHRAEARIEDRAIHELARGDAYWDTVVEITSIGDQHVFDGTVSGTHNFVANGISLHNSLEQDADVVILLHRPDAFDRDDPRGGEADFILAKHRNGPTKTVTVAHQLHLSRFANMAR
Briefly: DnaB intein splicing inhibitors, dose response, biochemical, cell-free fluorescence (AID 449749). The assay is classed as functional.

The next assay has as its target T4, Protein RecA (Mycobacterium tuberculosis, UniProt P9WHJ3).
T4 sequence (P9WHJ3 whole entry): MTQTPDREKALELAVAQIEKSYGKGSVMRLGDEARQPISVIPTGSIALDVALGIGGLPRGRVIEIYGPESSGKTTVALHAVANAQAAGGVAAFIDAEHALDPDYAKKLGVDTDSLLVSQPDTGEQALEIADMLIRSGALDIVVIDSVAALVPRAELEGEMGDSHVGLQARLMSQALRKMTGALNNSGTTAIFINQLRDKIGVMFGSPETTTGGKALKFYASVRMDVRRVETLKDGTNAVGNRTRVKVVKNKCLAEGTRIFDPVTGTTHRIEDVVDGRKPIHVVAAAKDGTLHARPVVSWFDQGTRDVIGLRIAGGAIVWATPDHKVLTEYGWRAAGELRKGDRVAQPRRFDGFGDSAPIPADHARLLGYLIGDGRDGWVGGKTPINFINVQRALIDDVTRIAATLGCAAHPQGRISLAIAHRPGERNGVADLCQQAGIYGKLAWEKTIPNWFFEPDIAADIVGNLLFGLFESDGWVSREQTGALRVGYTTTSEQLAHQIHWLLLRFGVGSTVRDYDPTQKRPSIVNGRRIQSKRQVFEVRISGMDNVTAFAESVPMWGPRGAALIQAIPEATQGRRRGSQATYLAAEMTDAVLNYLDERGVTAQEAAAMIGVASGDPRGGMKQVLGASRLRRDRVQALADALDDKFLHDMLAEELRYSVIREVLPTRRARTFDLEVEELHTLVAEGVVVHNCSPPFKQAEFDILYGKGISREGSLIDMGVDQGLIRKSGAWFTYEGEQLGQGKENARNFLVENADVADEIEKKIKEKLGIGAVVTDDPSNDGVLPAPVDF
Briefly: Fluorescence Cell-Free Homogeneous Dose Retest to Identify Inhibitors of RecA-Intein Splicing Activity. [Related pubchem assays (depositor defined):AID2097, AID2223, AID489010, AID492950]. The assay is classed as functional.

Assay [5] concerns the target Acyl-homoserine lactone acylase PvdQ (Pseudomonas aeruginosa (strain LESB58), UniProt Q9I194). Briefly: PvdQ acylase enzyme activity blockers – biochemical, fluorescence, plate reader and imaging, cherry-picks, dose response (AID 493231).
A short description of assay [6]: M. tuberculosis H37Rv growth inhibitors, H37Rv strain (AID 1626). It counts as functional.
The target in assay [7] is T5, Heat shock factor protein 1 (Mus musculus, UniProt P38532).
T5 sequence (P38532 whole entry): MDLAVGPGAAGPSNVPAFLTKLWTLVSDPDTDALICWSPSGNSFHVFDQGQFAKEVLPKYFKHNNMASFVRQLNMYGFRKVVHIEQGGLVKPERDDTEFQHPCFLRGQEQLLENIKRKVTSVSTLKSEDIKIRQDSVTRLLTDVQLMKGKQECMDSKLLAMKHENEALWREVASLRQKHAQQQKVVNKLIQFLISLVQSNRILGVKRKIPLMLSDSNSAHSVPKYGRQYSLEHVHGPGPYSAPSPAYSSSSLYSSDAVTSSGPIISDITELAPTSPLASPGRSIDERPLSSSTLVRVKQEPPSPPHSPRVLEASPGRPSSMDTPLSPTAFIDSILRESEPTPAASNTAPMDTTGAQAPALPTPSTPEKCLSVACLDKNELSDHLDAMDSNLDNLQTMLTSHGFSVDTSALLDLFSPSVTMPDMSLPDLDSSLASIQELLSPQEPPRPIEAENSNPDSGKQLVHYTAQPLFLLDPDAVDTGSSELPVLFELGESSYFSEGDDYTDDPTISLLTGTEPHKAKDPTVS
Briefly: decrease of HSF1-responsive luciferase luminescence – cell-based, NIH3T3, dose retest, confirmation (AID 2382).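 Note: NIH3T3 fibroblasts with HSF1-driven luciferase reporter stressed by proteasome inhibitor MG132; luminescence from HSF1-driven luciferase expression after 8 hours of MG132 stress.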 The assay is classed as functional.

For a further assay, the target named is Tumor necrosis factor (Homo sapiens, UniProt P01375). Briefly: analog potency on TNFa NF-kB signaling – cell-based, revised, SAR follow-up (AID 2337). The assay is classed as functional.
Sequence of Tumor necrosis factor (P01375 whole entry, the tested form may be a part): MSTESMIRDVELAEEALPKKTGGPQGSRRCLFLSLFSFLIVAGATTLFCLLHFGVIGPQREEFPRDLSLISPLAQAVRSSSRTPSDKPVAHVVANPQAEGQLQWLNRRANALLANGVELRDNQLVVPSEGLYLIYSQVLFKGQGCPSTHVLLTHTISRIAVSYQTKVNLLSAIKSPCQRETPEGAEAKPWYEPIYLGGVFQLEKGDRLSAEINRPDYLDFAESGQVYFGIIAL
In assay [8] the target is T6, Nucleotide-binding oligomerization domain-containing protein 1 (Homo sapiens, UniProt Q9Y239).
T6 sequence (Q9Y239 whole entry): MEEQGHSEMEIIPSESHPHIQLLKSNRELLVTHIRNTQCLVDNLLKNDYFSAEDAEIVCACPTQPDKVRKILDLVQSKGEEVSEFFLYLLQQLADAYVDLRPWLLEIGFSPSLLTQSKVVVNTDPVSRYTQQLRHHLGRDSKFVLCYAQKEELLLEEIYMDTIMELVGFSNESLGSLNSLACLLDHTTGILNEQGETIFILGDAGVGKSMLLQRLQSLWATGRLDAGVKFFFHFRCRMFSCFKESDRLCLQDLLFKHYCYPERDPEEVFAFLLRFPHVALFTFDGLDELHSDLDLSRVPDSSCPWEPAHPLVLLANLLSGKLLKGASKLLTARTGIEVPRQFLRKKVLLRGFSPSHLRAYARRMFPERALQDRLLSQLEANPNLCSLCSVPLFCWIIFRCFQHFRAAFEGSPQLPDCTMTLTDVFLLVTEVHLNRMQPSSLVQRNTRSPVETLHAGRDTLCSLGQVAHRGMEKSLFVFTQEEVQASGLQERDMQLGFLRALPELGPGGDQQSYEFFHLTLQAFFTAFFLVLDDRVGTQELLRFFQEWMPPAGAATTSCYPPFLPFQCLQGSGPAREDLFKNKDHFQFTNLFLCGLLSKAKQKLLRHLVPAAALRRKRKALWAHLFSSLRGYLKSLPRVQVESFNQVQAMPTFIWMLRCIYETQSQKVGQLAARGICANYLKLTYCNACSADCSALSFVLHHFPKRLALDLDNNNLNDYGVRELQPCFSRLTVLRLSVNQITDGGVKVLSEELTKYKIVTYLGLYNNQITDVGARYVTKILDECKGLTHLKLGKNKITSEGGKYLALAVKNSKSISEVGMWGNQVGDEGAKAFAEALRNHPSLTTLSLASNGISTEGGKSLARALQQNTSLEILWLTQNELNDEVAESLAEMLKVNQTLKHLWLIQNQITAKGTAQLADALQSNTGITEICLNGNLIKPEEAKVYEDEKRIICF
Briefly: blockers of NOD1 pathway activity – revised, SAR follow-up (AID 2333). It counts as functional.

Assay [9] deals with Cyclin-dependent kinase 5/CDK5 activator 1 (Homo sapiens, UniProt Q00535). Briefly: blockade of human CDK5 activity – biochemical, cherry-picked samples, set 2, dose response (AID 504545).
Sequence of Cyclin-dependent kinase 5/CDK5 activator 1 (Q00535 whole entry): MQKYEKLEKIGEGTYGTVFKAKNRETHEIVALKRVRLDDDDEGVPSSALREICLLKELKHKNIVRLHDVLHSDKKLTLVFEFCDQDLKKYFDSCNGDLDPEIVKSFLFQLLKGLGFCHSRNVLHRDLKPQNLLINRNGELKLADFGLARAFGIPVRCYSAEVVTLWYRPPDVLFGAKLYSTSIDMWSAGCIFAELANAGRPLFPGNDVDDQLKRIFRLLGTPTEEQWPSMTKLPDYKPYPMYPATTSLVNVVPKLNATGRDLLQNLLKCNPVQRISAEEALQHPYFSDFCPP
Sequence of Cyclin-dependent kinase 5/CDK5 activator 1 (Q15078 whole entry, further chain): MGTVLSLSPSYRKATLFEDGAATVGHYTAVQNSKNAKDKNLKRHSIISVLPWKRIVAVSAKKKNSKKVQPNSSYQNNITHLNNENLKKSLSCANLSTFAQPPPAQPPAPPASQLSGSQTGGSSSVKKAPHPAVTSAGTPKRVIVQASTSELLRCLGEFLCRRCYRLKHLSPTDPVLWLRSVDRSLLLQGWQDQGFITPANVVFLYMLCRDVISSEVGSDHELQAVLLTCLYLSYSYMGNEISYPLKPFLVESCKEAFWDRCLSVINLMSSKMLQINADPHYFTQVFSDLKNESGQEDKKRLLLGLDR
Assay [10] deals with Peroxisome proliferator-activated receptor gamma/Nuclear receptor coactivator 2 (Homo sapiens, UniProt P37231). The assay is classed as functional.
Sequence of Peroxisome proliferator-activated receptor gamma/Nuclear receptor coactivator 2 (P37231 whole entry): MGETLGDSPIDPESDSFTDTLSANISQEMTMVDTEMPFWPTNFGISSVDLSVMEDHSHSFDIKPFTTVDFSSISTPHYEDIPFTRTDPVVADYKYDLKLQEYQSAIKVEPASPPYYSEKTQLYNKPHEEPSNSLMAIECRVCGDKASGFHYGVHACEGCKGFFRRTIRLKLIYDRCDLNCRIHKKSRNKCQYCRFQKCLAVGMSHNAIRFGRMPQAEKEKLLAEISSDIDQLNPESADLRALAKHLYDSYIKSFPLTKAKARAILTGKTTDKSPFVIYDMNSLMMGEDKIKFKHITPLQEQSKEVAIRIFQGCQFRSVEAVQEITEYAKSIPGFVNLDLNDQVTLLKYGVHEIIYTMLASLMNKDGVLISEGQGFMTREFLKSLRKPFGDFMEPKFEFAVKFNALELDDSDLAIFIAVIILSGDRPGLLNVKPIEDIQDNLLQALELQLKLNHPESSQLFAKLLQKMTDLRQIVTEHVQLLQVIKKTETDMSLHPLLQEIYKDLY
Sequence of Peroxisome proliferator-activated receptor gamma/Nuclear receptor coactivator 2 (Q15596 whole entry, further chain): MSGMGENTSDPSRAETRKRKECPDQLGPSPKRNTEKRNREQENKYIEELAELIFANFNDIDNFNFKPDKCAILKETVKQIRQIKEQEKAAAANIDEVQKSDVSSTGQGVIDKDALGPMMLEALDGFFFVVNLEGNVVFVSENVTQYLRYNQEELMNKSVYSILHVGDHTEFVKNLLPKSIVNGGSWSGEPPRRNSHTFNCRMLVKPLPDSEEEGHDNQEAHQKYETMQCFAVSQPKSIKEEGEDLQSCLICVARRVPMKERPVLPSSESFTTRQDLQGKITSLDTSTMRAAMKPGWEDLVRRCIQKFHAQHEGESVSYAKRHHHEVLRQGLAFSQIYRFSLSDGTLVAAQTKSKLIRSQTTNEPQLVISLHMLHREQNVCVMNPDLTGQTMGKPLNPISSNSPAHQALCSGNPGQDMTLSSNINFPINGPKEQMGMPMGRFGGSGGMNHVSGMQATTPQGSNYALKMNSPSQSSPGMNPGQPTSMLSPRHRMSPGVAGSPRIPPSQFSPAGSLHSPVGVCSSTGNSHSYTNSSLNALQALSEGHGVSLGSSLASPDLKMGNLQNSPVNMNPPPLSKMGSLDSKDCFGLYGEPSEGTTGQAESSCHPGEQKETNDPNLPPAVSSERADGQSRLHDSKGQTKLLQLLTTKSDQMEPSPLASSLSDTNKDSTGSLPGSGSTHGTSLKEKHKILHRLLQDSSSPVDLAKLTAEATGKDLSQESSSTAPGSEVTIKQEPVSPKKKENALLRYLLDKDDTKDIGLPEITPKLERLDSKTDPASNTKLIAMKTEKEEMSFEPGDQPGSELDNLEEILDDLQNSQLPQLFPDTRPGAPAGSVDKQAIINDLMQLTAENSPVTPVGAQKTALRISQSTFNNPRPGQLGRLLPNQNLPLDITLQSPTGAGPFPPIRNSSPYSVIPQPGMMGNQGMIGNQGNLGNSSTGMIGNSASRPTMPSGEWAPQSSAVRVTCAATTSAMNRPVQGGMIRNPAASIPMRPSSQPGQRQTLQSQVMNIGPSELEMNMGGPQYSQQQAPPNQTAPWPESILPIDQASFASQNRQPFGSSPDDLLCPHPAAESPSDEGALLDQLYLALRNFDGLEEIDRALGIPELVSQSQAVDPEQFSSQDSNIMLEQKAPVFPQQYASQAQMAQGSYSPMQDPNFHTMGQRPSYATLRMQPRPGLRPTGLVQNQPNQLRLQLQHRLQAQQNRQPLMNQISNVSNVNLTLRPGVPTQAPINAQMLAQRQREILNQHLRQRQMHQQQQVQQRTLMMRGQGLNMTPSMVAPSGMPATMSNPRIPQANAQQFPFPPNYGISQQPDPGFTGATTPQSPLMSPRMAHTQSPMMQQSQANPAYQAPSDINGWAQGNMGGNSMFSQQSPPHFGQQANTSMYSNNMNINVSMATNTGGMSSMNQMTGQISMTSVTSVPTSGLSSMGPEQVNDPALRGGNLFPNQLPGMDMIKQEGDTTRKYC
In assay [11] the target is Peroxisome proliferator-activated receptor gamma/Nuclear receptor coactivator 1 (Homo sapiens, UniProt P37231). It counts as functional.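 Note: agonist potency as compounds enhance coactivator SRC-1 recruitment to PPARgamma.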
For assay [12], the target named is Photoreceptor-specific nuclear receptor (Homo sapiens, UniProt Q9Y5X4). The assay is classed as functional.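 Note: potency for compounds that break the NR2E3 corepressor complex and count as activators.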
Sequence of Photoreceptor-specific nuclear receptor (Q9Y5X4 whole entry): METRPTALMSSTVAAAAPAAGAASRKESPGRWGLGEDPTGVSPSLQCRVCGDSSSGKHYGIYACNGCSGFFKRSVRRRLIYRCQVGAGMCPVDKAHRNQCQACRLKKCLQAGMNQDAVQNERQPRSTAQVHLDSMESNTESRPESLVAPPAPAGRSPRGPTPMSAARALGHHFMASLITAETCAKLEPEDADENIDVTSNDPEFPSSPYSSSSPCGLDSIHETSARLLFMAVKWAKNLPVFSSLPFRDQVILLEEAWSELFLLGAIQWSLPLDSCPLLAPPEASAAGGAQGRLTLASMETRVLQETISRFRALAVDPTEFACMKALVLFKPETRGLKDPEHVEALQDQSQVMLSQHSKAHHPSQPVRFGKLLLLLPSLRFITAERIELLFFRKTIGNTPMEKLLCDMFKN
In assay [13] the target is Peroxisome proliferator-activated receptor gamma/Nuclear receptor coactivator 3 (Homo sapiens, UniProt P37231). The assay is classed as functional.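 Note: agonist potency for raising coactivator recruitment to the receptor.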
Assay [14] deals with Peroxisome proliferator-activated receptor gamma/Nuclear receptor corepressor 2 (Homo sapiens, UniProt P37231+Q9Y618). The assay is classed as functional.
For assay [15], the target named is T7, Small ubiquitin-related modifier 1 (Homo sapiens, UniProt P63165). Briefly: SUMO1 protein interaction blockers, potency – biochemical, fluorescence polarization, uHTS hits, dose response (AID 624382). The assay is classed as functional. Conditions: read-out: IC50_Mean.
T7 sequence (P63165 whole entry): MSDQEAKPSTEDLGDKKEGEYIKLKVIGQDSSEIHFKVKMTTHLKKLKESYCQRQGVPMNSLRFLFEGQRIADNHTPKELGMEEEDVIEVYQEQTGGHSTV
For assay [16], the target named is T7, Small ubiquitin-related modifier 1. Briefly: SUMO1 protein-protein binding blockers, potency – biochemical, FRET, dose response (AID 624383). The assay is classed as functional. The following applies: read-out: IC50_Mean.

Molecules are shown by their SMILES. Activity calls are given as the source filed them. Where only a bound is given, the exact number is not on record here.

T2 sequence (P11940 whole entry, the tested form may be a part): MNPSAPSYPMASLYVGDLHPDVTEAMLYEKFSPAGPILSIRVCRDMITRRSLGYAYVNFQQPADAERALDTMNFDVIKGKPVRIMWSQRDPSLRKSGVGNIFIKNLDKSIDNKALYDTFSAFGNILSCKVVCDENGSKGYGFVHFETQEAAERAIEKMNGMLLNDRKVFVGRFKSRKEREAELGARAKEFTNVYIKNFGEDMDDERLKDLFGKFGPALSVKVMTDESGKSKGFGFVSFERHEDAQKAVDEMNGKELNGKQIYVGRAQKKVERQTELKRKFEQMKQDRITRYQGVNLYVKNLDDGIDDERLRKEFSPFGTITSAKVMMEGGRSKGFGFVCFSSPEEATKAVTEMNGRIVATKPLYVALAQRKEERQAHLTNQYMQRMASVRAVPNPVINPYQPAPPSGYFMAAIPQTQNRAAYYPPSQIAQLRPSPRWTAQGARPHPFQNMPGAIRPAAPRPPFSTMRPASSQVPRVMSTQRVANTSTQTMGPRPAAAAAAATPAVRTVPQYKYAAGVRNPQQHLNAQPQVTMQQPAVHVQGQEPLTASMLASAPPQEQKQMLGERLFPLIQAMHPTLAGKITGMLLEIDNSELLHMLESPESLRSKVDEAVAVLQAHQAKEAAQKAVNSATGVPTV
Sequence of Acyl-homoserine lactone acylase PvdQ (Q9I194 24-193 limits assumed): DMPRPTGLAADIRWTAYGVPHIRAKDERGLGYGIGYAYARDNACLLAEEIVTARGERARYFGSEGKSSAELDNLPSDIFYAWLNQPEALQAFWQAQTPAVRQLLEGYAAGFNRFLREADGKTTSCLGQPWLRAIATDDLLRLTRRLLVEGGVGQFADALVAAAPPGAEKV
Sequence of Acyl-homoserine lactone acylase PvdQ (Q9I194 217-762 limits assumed): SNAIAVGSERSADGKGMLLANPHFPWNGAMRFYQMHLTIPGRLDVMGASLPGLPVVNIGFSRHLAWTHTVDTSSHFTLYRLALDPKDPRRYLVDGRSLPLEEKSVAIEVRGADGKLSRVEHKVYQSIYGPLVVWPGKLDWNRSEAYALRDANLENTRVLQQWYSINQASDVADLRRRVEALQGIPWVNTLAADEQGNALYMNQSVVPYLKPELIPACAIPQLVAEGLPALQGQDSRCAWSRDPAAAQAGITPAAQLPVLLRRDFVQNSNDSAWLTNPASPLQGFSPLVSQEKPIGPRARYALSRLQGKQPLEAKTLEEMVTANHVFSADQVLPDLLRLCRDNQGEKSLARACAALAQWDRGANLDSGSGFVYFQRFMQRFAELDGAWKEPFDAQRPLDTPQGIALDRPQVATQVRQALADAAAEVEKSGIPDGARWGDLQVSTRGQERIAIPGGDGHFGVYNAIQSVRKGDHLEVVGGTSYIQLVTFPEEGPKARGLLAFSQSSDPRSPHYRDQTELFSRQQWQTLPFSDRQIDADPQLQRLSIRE

Consider `Cc1cc(C)c2cc3c(ccn3C3OC[C@H](O)[C@H](O)[C@H]3O)cc2n1` (stereo partly drawn), for which the IC50 was > 6.25 µM (inactive) at Bcl-2-like protein 10, < 0.023 µM (not active) at Estrogen receptor beta, > 66 µM (inactive) in assay [1] and 57.6 µM (inactive) in assay [2].
As to `COc1ccc(C2C(C#N)=C(N)Oc3[nH]nc(C)c32)cc1CSc1ccccn1` (stereo not drawn), the EC50 in assay [3] is > 50 µM (active); at Protein RecA it was 6.32 µM (active). The AC50 in assay [4] is 9.71 µM (active).
For `O=[N+]([O-])c1ccc(N2CCCCC2)cc1`, the AC50 in assay [5] was 6.52 µM (active).
With `CC(C)Cc1c(O)nc(SCC(=O)Nc2ccc3c(c2)CCC3)nc1O`, the EC50 in assay [3] was > 50 µM (active). Also, the IC50 in assay [6] was > 100 µM (active).
`O=C1C2C(C(=O)N1Cc1ccco1)C1C=CC2C12CC2` (stereo not drawn): the AC50 in [5] was 2.42 µM (active).
In the case of `Cc1ccc(C(=O)ON=C(N)c2ccccn2)c(C)c1`, the EC50 in assay [7] is < 0.16 µM (active). For the same compound, the IC50 on Tumor necrosis factor was 0.0706 µM (active); in [8], 0.772 µM (active). Moreover, in assay [9], the AC50 was 11.8 µM (active).
In the case of `CCc1cc2cc3c(cc2nc1SCC(=O)Nc1cc(C)on1)OCO3`, the EC50 in assay [10], in [11] and in [13] was > 79.4 µM (not active) in each case. Also, the IC50 was > 39.8 µM (not active) in assay [12] and 1.54 µM (active) in assay [14].
Regarding `CC(C)[C@H](CO)Nc1nc(Nc2ccc(Cl)c(C(=O)O)c2)c2ncn(C(C)C)c2n1`, the AC50 in [9] was 9.44 µM (active). Besides, the IC50 was > 66.6 µM (inactive) in [15] and 21.4 µM (inactive) in assay [16].
